Columns and labels:
[1] = biological target: bovine serum albumin (Bos taurus, UniProt P02769); assay: Serum protein binding by gel filtration chromatography; format: in vitro ADME; settings: GFC after incubation in bovine serum albumin solution at 37°C for 4 h
[2] = design: species or system Sprague-Dawley rat; settings: rat, in vivo, iv
[3] = in serum; cited from earlier work
[4] = conventional NIR fluorophores; cited from earlier work
[5] = Optical properties of NIR fluorophores in 100% serum, pH 7.4; format: physicochemical
[6] = Stability in warm serum, 24 h, 37°C; format: in vitro ADME; settings: 100% serum, pH 7.4, 24 h

Chain of bovine serum albumin (P02769 25-607): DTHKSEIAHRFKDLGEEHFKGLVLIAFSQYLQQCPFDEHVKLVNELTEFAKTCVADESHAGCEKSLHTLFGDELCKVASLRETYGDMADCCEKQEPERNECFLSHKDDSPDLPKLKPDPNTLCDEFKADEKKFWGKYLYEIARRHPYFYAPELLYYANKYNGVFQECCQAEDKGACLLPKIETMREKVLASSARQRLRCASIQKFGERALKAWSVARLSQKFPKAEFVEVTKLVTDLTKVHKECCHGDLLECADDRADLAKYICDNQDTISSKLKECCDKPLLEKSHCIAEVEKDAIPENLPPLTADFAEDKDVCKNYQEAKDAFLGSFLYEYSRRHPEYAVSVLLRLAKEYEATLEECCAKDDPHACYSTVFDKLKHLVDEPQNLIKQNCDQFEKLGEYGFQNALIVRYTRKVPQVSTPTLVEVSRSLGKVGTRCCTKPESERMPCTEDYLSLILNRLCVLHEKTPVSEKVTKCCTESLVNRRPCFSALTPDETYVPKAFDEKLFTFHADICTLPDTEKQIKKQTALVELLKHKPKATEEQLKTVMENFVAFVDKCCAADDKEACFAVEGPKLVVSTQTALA

Row | Structure (SMILES) | Serum protein binding [1] | clearance route seen by dual-channel imaging [2] | molar extinction coefficient (ε) [3] | quantum yield (QY) [3] | LogD at pH 7.4 [4] | Absorbance Maximum [5] | Emission Maximum [5] | Extinction Coefficient [5] | Quantum Yield [5] | Stokes Shift [5] | Stability (%) at 24 h, 37°C [6]
1 | CC1(C)C(/C=C/C=C/C=C/C=C2\N(CCCCS(=O)(=O)[O-])c3ccc4ccccc4c3C2(C)C)=[N+](CCCCS(=O)(=O)[O-])c2ccc3ccccc3c21.[Na+] [ICG] | significant serum protein binding | extracted from blood by the liver and excreted into bile | 121,000 M^−1cm^−1 | 9.3% | – | – | – | – | – | – | –
2 | CC1(C)C(=CC=C2CCCC(C=CC3=[N+](CCCCCC(=O)[O-])c4ccc(S(=O)(=O)[O-])cc4C3(C)C)=C2Oc2ccc(S(=O)(=O)[O-])cc2)N(CCCCS(=O)(=O)[O-])c2ccc(S(=O)(=O)[O-])cc21.[Na+].[Na+].[Na+].[Na+] [IRDye 800CW] | – | – | – | – | 2.51 | – | – | – | – | – | –
3 | CN(C)c1ccc2nc3ccc(=[N+](C)C)cc-3sc2c1 [Methylene Blue] | – | – | – | – | – | 665 nm | 685 nm | 71,200 M^−1cm^−1 | 3.8% | 20 nm | 99%
4 | CC1(C)C(/C=C/C(=C/C=C2/N(CCC[N+](C)(C)C)c3ccc(S(=O)(=O)[O-])cc3C2(C)C)c2ccc(CCC(=O)[O-])cc2)=[N+](CCC[N+](C)(C)C)c2ccc(S(=O)(=O)[O-])cc21 [ZW700-1c] | – | – | – | – | – | 646 nm | 663 nm | 199,000 M^−1cm^−1 | 19.5% | 17 nm | 99%

From paper PMC4684479 (Molecular imaging and biology : MIB : the official …, 2016)
